Reference: PubChem BioAssay AID330 (DTP/NCI, 2004)
Values joined by “and” are separate entries in the source; they are usually repeats but may differ in a detail not shown here. Equal values may be shown once. Toxic doses and inconclusive results are not listed. Rule for the calls: active = survival T/C of 150% or more; inactive = T/C below 125% in these data.

System: P388 leukemia ip, CD2F1 mice, survival T/C
Assay: NCI In Vivo Anticancer Drug Screen. Data for tumor model P388 Leukemia (intraperitoneal) in CD2F1 (CDF1) mice
Details: endpoint: median survival time, higher = longer survival
Summary of the method: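 Mice carrying the transplanted tumor received test compound or vehicle. Survival was recorded in each group, and the value is the treated-group measurement divided by that of the vehicle-treated control group.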

[1] = dose: 50.0 mg/kg/injection, schedule: Q01DX005 (ip), vehicle: saline with Tween-80
[2] = dose: 12.5 mg/kg/injection, schedule: Q01DX009 (ip), vehicle: saline with Tween-80
[3] = dose: 50.0 mg/kg/injection, schedule: Q01DX009 (ip), vehicle: saline with Tween-80
[4] = dose: 50.0 mg/kg/injection, schedule: Q01DX009 (ip), vehicle: Klucel (hydroxypropylcellulose) (HPC)
[5] = dose: 50.0 mg/kg/injection, schedule: Q01DX005 (ip), vehicle: Klucel (hydroxypropylcellulose) (HPC)
[6] = dose: 100.0 mg/kg/injection, schedule: Q01DX005 (ip), vehicle: Klucel (hydroxypropylcellulose) (HPC)
[7] = dose: 200.0 mg/kg/injection, schedule: Q01DX005 (ip), vehicle: Klucel (hydroxypropylcellulose) (HPC)
[8] = dose: 50.0 mg/kg/injection, schedule: Q01DX009 (ip), vehicle: saline
[9] = dose: 100.0 mg/kg/injection, schedule: Q01DX009 (ip), vehicle: saline
[10] = dose: 200.0 mg/kg/injection, schedule: Q01DX009 (ip), vehicle: saline
[11] = dose: 100.0 mg/kg/injection, schedule: Q01DX009 (ip), vehicle: saline with Tween-80
[12] = dose: 200.0 mg/kg/injection, schedule: Q01DX009 (ip), vehicle: saline with Tween-80

Measured: T/C

O=C1NC(=O)C2C3CCC(C12)C1C2C(=O)NC(=O)C2C31 (configuration not stated)
inactive: dose: 12.5 mg/kg/injection, schedule: Q01DX005 (ip), vehicle: saline with Tween-80 91 % of control | dose: 25.0 mg/kg/injection, schedule: Q01DX005 (ip), vehicle: saline with Tween-80 93 % of control | [1] 101 % of control and 91 % of control

COc1ccc(OC)c2c1C(=O)C=CC2=O
inactive: dose: 1.56 mg/kg/injection, schedule: Q01DX001 (ip), vehicle: saline 108 % of control | dose: 3.13 mg/kg/injection, schedule: Q01DX001 (ip), vehicle: saline 110 % of control | dose: 6.25 mg/kg/injection, schedule: Q01DX001 (ip), vehicle: saline 108 % of control

COc1ccc(/C(C#N)=C2\OC(=O)c3ccccc32)cc1OC
inactive: dose: 6.25 mg/kg/injection, schedule: Q01DX009 (ip), vehicle: saline with Tween-80 97 % of control | [2] 89 % of control | [3] 90 % of control | dose: 400.0 mg/kg/injection, schedule: Q01DX009 (ip), vehicle: saline with Tween-80 90 % of control

Cn1c(-c2ccccc2)c2c(c1-c1ccccc1)C(=O)c1ccccc1C2=O
inactive: [4] 95 % of control | dose: 100.0 mg/kg/injection, schedule: Q01DX009 (ip), vehicle: Klucel (hydroxypropylcellulose) (HPC) 101 % of control | dose: 200.0 mg/kg/injection, schedule: Q01DX009 (ip), vehicle: Klucel (hydroxypropylcellulose) (HPC) 100 % of control

COc1ccc(N2CC=C(c3ccccc3)OP2(=O)N2CC2)cc1 (configuration not stated)
inactive: [5] 106 % of control | [6] 105 % of control | [7] 95 % of control

Oc1cc(-c2cc3cccc[n+]3o2)cc(O)c1O
inactive: dose: 12.5 mg/kg/injection, schedule: Q01DX009 (ip), vehicle: Klucel (hydroxypropylcellulose) (HPC) 100 % of control | dose: 25.0 mg/kg/injection, schedule: Q01DX009 (ip), vehicle: Klucel (hydroxypropylcellulose) (HPC) 99 % of control | [4] 100 % of control

CC1=C2CC3CCC(C)C2(CC1)C3(C)C (configuration not stated)
inactive: [8] 98 % of control | [9] 95 % of control | dose: 100.0 mg/kg/injection, schedule: Q04DX003 (ip), vehicle: saline 95 % of control | [10] 95 % of control | dose: 200.0 mg/kg/injection, schedule: Q04DX003 (ip), vehicle: saline 95 % of control | dose: 400.0 mg/kg/injection, schedule: Q04DX003 (ip), vehicle: saline 100 % of control

CCCCCCC1(/C=C/c2ccc(Cl)cc2Cl)OCC(C)(C)CO1
inactive: dose: 50.0 mg/kg/injection, schedule: Q01DX009 (ip), vehicle: saline + alcohol 102 % of control | dose: 100.0 mg/kg/injection, schedule: Q01DX009 (ip), vehicle: saline + alcohol 102 % of control | dose: 200.0 mg/kg/injection, schedule: Q01DX009 (ip), vehicle: saline + alcohol 102 % of control

COC(=O)C1(C)CCC=CC1Sc1ccccc1 (configuration not stated)
inactive: dose: 100.0 mg/kg/injection, schedule: Q04DX003 (ip), vehicle: Klucel (hydroxypropylcellulose) (HPC) 100 % of control | dose: 200.0 mg/kg/injection, schedule: Q04DX003 (ip), vehicle: Klucel (hydroxypropylcellulose) (HPC) 105 % of control | dose: 400.0 mg/kg/injection, schedule: Q04DX003 (ip), vehicle: Klucel (hydroxypropylcellulose) (HPC) 99 % of control

CCOC(=O)c1c(N)ssc1=S
inactive: [8] 100 % of control | [9] 97 % of control | [10] 105 % of control

O=C(Nc1ccc(Nc2ccncc2)cc1)c1ccc(N2C(=O)c3ccccc3C2=O)cc1[N+](=O)[O-]
inactive: [3] 98 % of control | [11] 95 % of control | [12] 95 % of control

O=C(OC1(c2nccc3ccccc23)CCCN(Cc2ccccc2)C1)c1ccccc1 (configuration not stated)
inactive: [3] 106 % of control | [11] 109 % of control | [12] 104 % of control

NN(C(=O)c1ccccc1)C1CCCCC1
inactive: dose: 12.5 mg/kg/injection, schedule: Q04DX003 (ip), vehicle: saline 95 % of control | dose: 25.0 mg/kg/injection, schedule: Q04DX003 (ip), vehicle: saline 104 % of control | dose: 50.0 mg/kg/injection, schedule: Q04DX003 (ip), vehicle: saline 100 % of control

CC(C)Oc1ccc2c(c1)Sc1ccc(Cl)cc1N2
inactive: dose: 100.0 mg/kg/injection, schedule: Q04DX003 (ip), vehicle: saline with Tween-80 100 % of control | dose: 200.0 mg/kg/injection, schedule: Q04DX003 (ip), vehicle: saline with Tween-80 100 % of control | dose: 400.0 mg/kg/injection, schedule: Q04DX003 (ip), vehicle: saline with Tween-80 100 % of control

C[CH2][Pb]([CH2]C)([CH2]C)[n]1cnc2ccccc21
inactive: dose: 0.75 mg/kg/injection, schedule: Q01DX009 (ip), vehicle: Klucel (hydroxypropylcellulose) (HPC) 99 % of control | dose: 1.5 mg/kg/injection, schedule: Q01DX009 (ip), vehicle: Klucel (hydroxypropylcellulose) (HPC) 118 % of control | dose: 3.0 mg/kg/injection, schedule: Q01DX009 (ip), vehicle: Klucel (hydroxypropylcellulose) (HPC) 118 % of control | dose: 3.12 mg/kg/injection, schedule: Q04DX003 (ip), vehicle: Klucel (hydroxypropylcellulose) (HPC) 96 % of control | dose: 6.25 mg/kg/injection, schedule: Q04DX003 (ip), vehicle: Klucel (hydroxypropylcellulose) (HPC) 114 % of control | dose: 12.5 mg/kg/injection, schedule: Q04DX003 (ip), vehicle: Klucel (hydroxypropylcellulose) (HPC) 92 % of control

Cc1cccc(-n2c(N)cc(=O)[nH]c2=S)n1
inactive: dose: 25.0 mg/kg/injection, schedule: Q01DX001 (ip), vehicle: saline with Tween-80 100 % of control | dose: 50.0 mg/kg/injection, schedule: Q01DX001 (ip), vehicle: saline with Tween-80 100 % of control | dose: 100.0 mg/kg/injection, schedule: Q01DX001 (ip), vehicle: saline with Tween-80 109 % of control

CC1=C/C(=N\SC(c2ccccc2)(c2ccccc2)c2ccccc2)CCC1
inactive: dose: 100.0 mg/kg/injection, schedule: Q04DX002 (ip), vehicle: saline with Tween-80 94 % of control | dose: 200.0 mg/kg/injection, schedule: Q04DX002 (ip), vehicle: saline with Tween-80 95 % of control

COC1=CC(=O)C2CC=CC3CC(=O)OC1C32C (configuration not stated)
inactive: dose: 100.0 mg/kg/injection, schedule: Q04DX002 (ip), vehicle: Klucel (hydroxypropylcellulose) (HPC) 100 % of control | dose: 200.0 mg/kg/injection, schedule: Q04DX002 (ip), vehicle: Klucel (hydroxypropylcellulose) (HPC) 94 % of control | dose: 400.0 mg/kg/injection, schedule: Q04DX002 (ip), vehicle: Klucel (hydroxypropylcellulose) (HPC) 100 % of control

C/C(=N\NC(=O)c1ccccc1N)c1ccccc1O
inactive: [5] 100 % of control | [6] 98 % of control | [7] 100 % of control

S=C=NCCc1ccccc1
inactive: [2] 116 % of control | dose: 22.0 mg/kg/injection, schedule: Q01DX009 (ip), vehicle: saline with Tween-80 115 % of control | [3] 114 % of control

O=C(NCCCCOc1ccccc1[N+](=O)[O-])OCc1ccccc1
inactive: [1] 101 % of control | dose: 100.0 mg/kg/injection, schedule: Q01DX005 (ip), vehicle: saline with Tween-80 97 % of control | dose: 200.0 mg/kg/injection, schedule: Q01DX005 (ip), vehicle: saline with Tween-80 101 % of control

O=c1c2ccccc2[nH]c(=S)n1-c1cccc(C(F)(F)F)c1
inactive: [3] 92 % of control | [11] 94 % of control | [12] 100 % of control
